Experimental data from ChEMBL document CHEMBL5726860, “Phthalazinones and isoquinolinones as rock inhibitors” (2018).
pIC50: −log10 of the molar value.

The compounds below were run against Rho-associated protein kinase 2 (Homo sapiens, UniProt O75116) (assay: (§1) In Vitro Assay: The effectiveness of compounds of the present invention as ROCK inhibitors can be determined in a 30 μL assay containing 20 mM HEPES, pH 7.5, 20 mM MgCl2, 0.015% Brij-35, 4 mM DTT, 5 μM ATP and 1.5 μM peptide substrate (FITC-AHA-[…]-OH). Compounds were dissolved in DMSO so that the final concentration of DMSO was <2%, and the reaction was initiated with Rho kinase variants. After incubation, the reaction was terminated by the addition of EDTA and the phosphorylated and non-phosphorylated peptides separated using a LABCHIP® 3000 Reader (Caliper Life Sciences). […] Compounds were tested in dose-response format, and the inhibition of kinase activity was calculated at each concentration of compound. The inhibition data were fit using a curve-fitting program to determine the IC50; i.e., the concentration of compound required to inhibit 50% of kinase activity.).
Rho-associated protein kinase 2, sequence (O75116 whole entry, looked up, change not shown): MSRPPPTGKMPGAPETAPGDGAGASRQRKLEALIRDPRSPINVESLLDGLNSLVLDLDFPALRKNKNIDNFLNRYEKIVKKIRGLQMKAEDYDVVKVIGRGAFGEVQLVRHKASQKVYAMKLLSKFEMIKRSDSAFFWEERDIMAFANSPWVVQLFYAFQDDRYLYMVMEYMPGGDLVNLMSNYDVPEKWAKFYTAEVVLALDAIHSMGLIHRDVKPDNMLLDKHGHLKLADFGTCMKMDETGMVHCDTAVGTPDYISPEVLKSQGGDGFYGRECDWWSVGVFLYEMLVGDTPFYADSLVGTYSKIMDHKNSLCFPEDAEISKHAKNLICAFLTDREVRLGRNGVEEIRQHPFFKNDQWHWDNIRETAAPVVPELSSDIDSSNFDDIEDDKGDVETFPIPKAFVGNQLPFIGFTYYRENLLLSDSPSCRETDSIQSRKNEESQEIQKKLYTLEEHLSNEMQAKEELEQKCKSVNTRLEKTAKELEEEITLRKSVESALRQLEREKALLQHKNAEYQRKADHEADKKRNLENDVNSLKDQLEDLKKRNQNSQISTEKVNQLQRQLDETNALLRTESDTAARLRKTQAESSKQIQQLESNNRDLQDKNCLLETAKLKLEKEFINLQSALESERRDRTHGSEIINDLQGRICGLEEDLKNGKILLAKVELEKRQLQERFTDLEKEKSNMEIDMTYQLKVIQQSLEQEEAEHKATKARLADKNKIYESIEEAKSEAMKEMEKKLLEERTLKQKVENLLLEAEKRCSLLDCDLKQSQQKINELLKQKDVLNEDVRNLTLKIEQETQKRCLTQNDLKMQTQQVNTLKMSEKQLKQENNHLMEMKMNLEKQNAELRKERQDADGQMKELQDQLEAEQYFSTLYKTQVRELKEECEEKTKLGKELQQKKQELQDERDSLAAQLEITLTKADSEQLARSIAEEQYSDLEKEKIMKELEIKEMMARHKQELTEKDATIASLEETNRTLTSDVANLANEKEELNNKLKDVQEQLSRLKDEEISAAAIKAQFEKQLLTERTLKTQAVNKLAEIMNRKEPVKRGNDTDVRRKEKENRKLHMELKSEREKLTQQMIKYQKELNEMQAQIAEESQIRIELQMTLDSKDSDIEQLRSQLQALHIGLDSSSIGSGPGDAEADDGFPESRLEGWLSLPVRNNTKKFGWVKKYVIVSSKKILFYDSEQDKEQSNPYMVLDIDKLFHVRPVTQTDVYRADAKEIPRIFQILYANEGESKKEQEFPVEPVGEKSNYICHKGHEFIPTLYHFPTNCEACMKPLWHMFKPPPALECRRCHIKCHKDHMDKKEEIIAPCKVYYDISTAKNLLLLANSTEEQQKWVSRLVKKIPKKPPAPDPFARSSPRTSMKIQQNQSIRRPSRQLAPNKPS

pIC50	Structure (SMILES)
> 7.00	O=C(Nc1ccc(-c2n[nH]c(=O)c3ccccc23)cc1)c1cnn(CC2CC2)c1
> 7.00	O=C(Nc1ccc(-c2n[nH]c(=O)c3ccccc23)cc1)c1cnn(CC(F)(F)F)c1
> 7.00	O=C(Nc1ccc(-c2n[nH]c(=O)c3ccccc23)cc1)c1cn2ccnc(Cl)c2n1
> 7.00	O=C(Nc1ccc(-c2n[nH]c(=O)c3ccccc23)cc1)c1cnn(C2CCS(=O)(=O)C2)c1 (stereo not drawn)
> 7.00	CCc1c(C(=O)Nc2ccc(-c3n[nH]c(=O)c4ccccc34)cc2)nnn1-c1cccc(Cl)c1
> 7.00	O=C(Nc1ccc(-c2n[nH]c(=O)c3ccccc23)cc1)c1cc2ncccn2n1
> 7.00	O=C(Nc1ccc(-c2n[nH]c(=O)c3ccccc23)cc1)c1cnn(CC(O)C(F)(F)F)c1 (stereo not drawn)
> 7.00	O=C(Nc1ccc(-c2n[nH]c(=O)c3ccccc23)cc1)c1cnn(C2CCCC2)c1
> 7.00	O=C(Nc1ccc(-c2n[nH]c(=O)c3ccccc23)cc1)c1cnn(CC(F)(F)C(F)F)c1
> 7.00	O=C(Nc1ccc(-c2n[nH]c(=O)c3ccccc23)cc1)c1c[nH]c2ncc(F)cc12
> 7.00	O=C(Nc1ccc(-c2n[nH]c(=O)c3ccccc23)cc1)c1cnn2ccc(OCCO)cc12
> 7.00	O=C(Nc1ccc(-c2n[nH]c(=O)c3ccccc23)cc1)c1cn[nH]c1

Second part, the compound before the results:

Structure (SMILES)	pIC50
O=C(Nc1ccc(-c2c[nH]c(=O)c3ccccc23)cc1)c1ccc(N2CCOCC2)cc1	> 7.00
O=C(Nc1ccc(-c2n[nH]c(=O)c3ccccc23)c(CO)c1)c1nn(CCC2CCOCC2)c2ccccc12	> 7.00
O=C(Cc1ccc(-c2c[nH]c(=O)c3ccccc23)c(F)c1)N1Cc2ccccc2C1	> 7.00
Cc1ccc2oc(Nc3ccc(-c4n[nH]c(=O)c5ccccc45)cc3)nc2c1	> 7.00
O=C(Nc1ccc(-c2n[nH]c(=O)c3ccccc23)c(Cl)c1)c1nn(CC2CNC2)c2ccccc12	> 7.00
O=C(Nc1ccc(-c2n[nH]c(=O)c3ccccc23)cc1)c1cnn(C2CCCCC2)c1	> 7.00
CCCn1cc(C(=O)Nc2ccc(-c3n[nH]c(=O)c4ccccc34)cc2)cn1	> 7.00
O=c1[nH]nc(-c2ccc(Nc3nnc(-c4ccccc4)s3)cc2)c2ccccc12	> 7.00
CC(O)Cn1cc(C(=O)Nc2ccc(-c3n[nH]c(=O)c4ccccc34)cc2)cn1 (stereo not drawn)	> 7.00
O=C(Nc1ccc(-c2n[nH]c(=O)c3ccccc23)cc1)c1nn(CC2CCNCC2)c2ccccc12	> 7.00

Each compound was assayed against Rho-associated protein kinase 1 (Homo sapiens, UniProt Q13464) (assay: as §1).
Rho-associated protein kinase 1, sequence (Q13464 2-1354 limits assumed, change not shown): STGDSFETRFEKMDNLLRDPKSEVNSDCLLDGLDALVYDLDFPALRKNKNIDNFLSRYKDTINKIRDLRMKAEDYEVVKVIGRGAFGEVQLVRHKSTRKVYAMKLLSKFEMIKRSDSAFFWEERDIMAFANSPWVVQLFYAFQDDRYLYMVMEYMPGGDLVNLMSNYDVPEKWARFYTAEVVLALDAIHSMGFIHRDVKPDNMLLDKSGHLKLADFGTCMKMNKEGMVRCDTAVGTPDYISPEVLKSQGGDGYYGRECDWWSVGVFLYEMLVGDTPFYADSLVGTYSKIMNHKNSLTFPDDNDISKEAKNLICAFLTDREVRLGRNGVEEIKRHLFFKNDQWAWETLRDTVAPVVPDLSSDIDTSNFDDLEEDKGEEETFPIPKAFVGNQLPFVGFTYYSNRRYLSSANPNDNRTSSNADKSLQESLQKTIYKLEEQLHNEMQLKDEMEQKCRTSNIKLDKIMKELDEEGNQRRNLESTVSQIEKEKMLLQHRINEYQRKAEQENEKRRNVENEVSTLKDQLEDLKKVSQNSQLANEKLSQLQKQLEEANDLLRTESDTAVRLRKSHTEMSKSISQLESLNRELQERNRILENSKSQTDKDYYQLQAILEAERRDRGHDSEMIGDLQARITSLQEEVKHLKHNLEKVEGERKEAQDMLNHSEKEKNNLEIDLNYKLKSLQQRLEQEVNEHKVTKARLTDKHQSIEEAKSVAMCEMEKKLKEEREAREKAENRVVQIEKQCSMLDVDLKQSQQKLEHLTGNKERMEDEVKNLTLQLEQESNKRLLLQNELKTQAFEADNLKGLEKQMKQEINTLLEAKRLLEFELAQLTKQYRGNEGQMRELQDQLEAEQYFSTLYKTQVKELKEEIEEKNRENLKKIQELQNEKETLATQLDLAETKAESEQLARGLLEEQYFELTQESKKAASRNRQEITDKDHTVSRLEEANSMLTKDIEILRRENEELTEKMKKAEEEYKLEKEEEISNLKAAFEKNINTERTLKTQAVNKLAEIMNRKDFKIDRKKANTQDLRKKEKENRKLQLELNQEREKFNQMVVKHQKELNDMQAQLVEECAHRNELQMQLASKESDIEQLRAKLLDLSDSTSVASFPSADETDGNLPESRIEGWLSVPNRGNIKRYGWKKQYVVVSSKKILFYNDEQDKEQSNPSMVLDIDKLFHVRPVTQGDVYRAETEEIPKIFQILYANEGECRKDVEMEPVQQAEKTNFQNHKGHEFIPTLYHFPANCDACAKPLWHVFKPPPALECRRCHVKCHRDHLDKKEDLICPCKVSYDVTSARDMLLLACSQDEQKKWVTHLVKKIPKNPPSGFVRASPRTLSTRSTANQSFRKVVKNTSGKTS

Structure (SMILES)	IC50
O=C(Oc1ccc(-c2n[nH]c(=O)c3ccccc23)cc1)N1Cc2ccccc2C1	in the range around 550 nM
